Source: patent publication US5070210A, “Novel ketenimines as intermediates for insecticides” (ICI Americas Inc., priority 1990, dated 1991)

What was measured:
Format in all cases: in vivo
[1] = system: Maize weevil [Sitophilus Zeamais (Motschulsky)]; assay: Maize weevil insecticidal test; conditions: adult weevils, percent in solution; 48 hours
Summary of the method: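 LC50, in percent of compound in solution, was derived from dosage-mortality curves after 48 h at about 25 °C. Ten adult weevils per container fed on four corn seeds briefly immersed in acetone:water (50:50) solutions of up to 0.01% and dried.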

[2] = system: Tobacco Budworm [Heliothis virescens (Fabricius)] eggs; assay: Tobacco budworm egg test; conditions: 2-day old eggs, percent in solution
Summary of the method: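 Mortality of dipped eggs served as read-out, recorded after untreated controls hatched and began feeding. Treatments used acetone solutions from 0.1% downward, with eggs incubated at 78° F; LC50 is expressed as percent of compound in the solution.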

[3] = system: Housefly [Musca domestica]; assay: Housefly insecticidal test; conditions: μg per 25 female flies; mortality after 48 hours
Summary of the method: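 LC50 (μg compound per 25 female flies) derives from dosage-mortality curves of 48 h kill. Flies, females 1-2 days old, were held 25 per cage over a dish coated with dried acetone deposit, starting at 100 μg per cage and descending.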

[4] = system: Cabbage Looper [Trichoplusia ni (Hubner)]; assay: Cabbage looper insecticidal test; conditions: second-instar larvae, percent in solution; 3-5 days
Summary of the method: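 Steps: dilute compound in 50-50 acetone-water from 0.1% downward; immerse cotyledon pieces 2-3 s and dry; place in humid petri dishes with five second-instar larvae; record mortality at 3-5 days. Dosage-mortality curves yield LC50 as percent in solution.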

Compound	LC50, MW [1] [%]	LC50, TBW, E (TBW-E) [2] [%]	LC50, HF [3] [µg]	LC50, CL [4] [%]
C=C(C)C(=Nc1ccc(C(F)(F)F)cc1)OCc1cccc(Oc2ccc(F)cc2)c1 [Compound 442]	> 0.01	0.035	< 100	0.0007
Fc1ccc(COC(=Nc2ccc(C(F)(F)F)cc2)C2CC2)cc1Oc1ccccc1 [Compound 443]	< 0.01	0.017	< 100	0.00015
Fc1ccc(COC(=Nc2ccc(C(F)(F)F)cc2)C2CC2)cc1Oc1ccc(Cl)cc1 [Compound 444]	> 0.01	0.023	> 100	0.00015
CC(C)C(=Nc1ccc(C(F)(F)F)cc1[N+](=O)[O-])OCc1ccc(F)c(Oc2ccccc2)c1 [Compound 445]	> 0.01	> 0.1	< 100	0.00045
CCOc1ccc(N=C(OCc2cccc(Oc3ccc(F)cc3)c2)C(C)C)cc1Br [Compound 446]	> 0.01	< 0.1	> 100	0.0008
CC(C)C(=Nc1ccc(F)c(I)c1)OCc1cccc(Oc2ccc(F)cc2)c1 [Compound 449]	0.0075	0.025	13	0.0001
CC(C)C(=Nc1cccc(C(F)(F)F)c1)OC(C)c1cccc(Oc2ccccc2)c1 (stereo not drawn) [Compound 459]	> 0.01	0.1	> 100	0.008
CC(C)C(=Nc1ccc(F)c(Cl)c1)OCc1cccc(Oc2c(F)c(F)c(F)c(F)c2F)c1 [Compound 460]	> 0.01	> 0.1	> 100	0.02
CC(C)C(=Nc1ccc(I)c(Cl)c1)OCc1cccc(Oc2ccc(Cl)cc2)n1 [Compound 471]	> 0.01	0.018	< 100	0.00018
CC(C)C(=Nc1cccc(C(F)(F)F)c1)OCc1cccc(Oc2ccc(Cl)cc2)n1 [Compound 477]	0.0076	> 0.1	20	0.0003
CC(C)C(=Nc1ccc(Br)cc1)OCc1coc(Cc2ccccc2)c1 [Compound 478]	> 0.01	> 0.1	15	0.0037
CC(C)C(=Nc1cccc(C(F)(F)F)c1)OCc1coc(Cc2ccccc2)c1 [Compound 482]	> 0.01	> 0.1	36	0.01
CC(C)C(=Nc1ccc2c(c1)OCO2)OCc1coc(Cc2ccccc2)c1 [Compound 483]	> 0.01	0.05	6	0.001
CC(C)C(=Nc1ccc(F)cc1F)OCc1coc(Cc2ccccc2)c1 [Compound 486]	> 0.01	> 0.1	15	> 0.1
COCc1c(F)c(F)c(COC(=Nc2cccc(C(F)(F)F)c2)C(C)C)c(F)c1F [Compound 503]	> 0.01	0.08	21	0.001
CC(C)C(=Nc1ccc(C(F)(F)F)cc1)OCc1cccc(Oc2ccccc2)n1 [Compound 504]	0.01	0.05	< 100	0.00025
COCc1c(F)c(F)c(COC(=Nc2ccc(F)c(Cl)c2)C(C)C)c(F)c1F [Compound 505]	> 0.01	0.09	14	0.0024

Compound	LC50, MW [1] [%]	LC50, TBW, E (TBW-E) [2] [%]	LC50, HF [3] [µg]	LC50, CL [4] [%]
CC(C)C(=Nc1cccc(C(F)(F)F)c1)OCc1cc(Oc2ccccc2)ccn1 [Compound 506]	> 0.01	> 0.1	40	0.005
CC(C)C(=Nc1cccc(C(F)(F)F)c1)OCc1ccnc(Oc2ccccc2)c1 [Compound 507]	> 0.01	> 0.1	93	0.002
CC(C)C(=Nc1cccc(C(F)(F)F)c1)OCc1cc(Oc2ccc(Cl)cc2)ccn1 [Compound 509]	> 0.01	> 0.1	79	0.0075
CC(C)C(=Nc1ccc(F)c(Cl)c1)OCc1ccnc(Oc2ccccc2)c1 [Compound 510]	> 0.01	> 0.1	54	0.017
CC(C)C(=Nc1ccc(F)c(Cl)c1)OCc1ccnc(Oc2ccc(F)cc2)c1 [Compound 511]	> 0.01	> 0.1	89	0.0012
CC(C)C(=Nc1ccc(OC(F)(F)F)cc1)OCc1cccc(Oc2ccccc2)n1 [Compound 550]	> 0.01	> 0.1	< 100	0.00034
CC(C)C(=Nc1ccc(Br)c(F)c1)OCc1cccc(Oc2ccc(Cl)cc2)n1 [Compound 551]	> 0.01	0.035	< 100	0.00075
CCc1ccc(N=C(OCc2cccc(Oc3ccc(Cl)cc3)n2)C(C)C)cc1 [Compound 552]	> 0.01	> 0.1	> 100	0.0016
CC(C)C(=Nc1ccc(Cl)cc1)OCc1cccc(Oc2ccccc2)n1 [Compound 553]	> 0.01	0.1	< 100	< 0.1
CC(C)C(=Nc1ccc(Cl)cc1)OCc1cccc(Oc2ccc(Cl)cc2)n1 [Compound 554]	> 0.01	0.04	> 100	0.00075
CC(C)C(=Nc1ccc(Cl)c(C(F)(F)F)c1)OCc1cccc(Oc2ccccc2)n1 [Compound 555]	> 0.01	> 0.1	< 100	0.002
CC(C)C(=Nc1ccc2c(c1)OC(F)(F)O2)OCc1cccc(Oc2ccccc2)n1 [Compound 556]	> 0.01	0.04	< 100	0.0007
CC(C)C(=Nc1cccc(Br)c1)OCc1cccc(Oc2ccc(Cl)cc2)n1 [Compound 557]	> 0.01	> 0.1	< 100	0.0004
CC(C)C(=Nc1ccc(F)c(Br)c1)OCc1cccc(Oc2ccccc2)n1 [Compound 558]	> 0.01	> 0.1	< 100	0.00045
CC(C)C(=Nc1ccc(F)c(F)c1)OCc1cccc(Oc2ccc(Cl)cc2)n1 [Compound 559]	> 0.01	0.017	< 100	0.00027
C=C(C)C(=Nc1ccc(C(F)(F)F)cc1)OCc1cccc(Oc2ccc(Cl)cc2)n1 [Compound 560]	> 0.01	< 0.1	< 100	0.0015
